In patent publication US20160235749A1, “MICRO-PARTICULATED NANOCAPSULES CONTAINING LOPINAVIR WITH ENHANCED ORAL BIOAVAILABILITY AND EFFICACY” (priority 2015, published 2016):
Converted amounts (≈) assume the structure as drawn. Like-named read-outs stand apart in the source and are kept apart here.

Tests used:
[1] = LPV solubility test in 0.1% Tween 80; format: physicochemical; conditions: 0.1% Tween 80 solution, aqueous with cosolvent or surfactant or cyclodextrin, thermodynamic from solid; 0.1% Tween 80, pH 7.4, 37° C., 3 h incubation
Procedure: A solubility test was performed prior to the in-vitro release profile experiment to ensure that sink conditions would prevail by adding 10 mg LPV to 10 ml of 0.1% Tween 80 pre-warmed to 37° C. in a beaker. The pH was adjusted to 7.4 and the Tween solution was kept at 37° C. and rotated at 150 rpm for 3 h. Then, 5 ml aliquots were taken and filtered using a 0.45 μm PVDF filter and diluted with methanol to a final dilution factor of 10.

[2] = LPV in-vitro release profile experiment; format: physicochemical; conditions: 0.1% Tween 80 release medium
Procedure: LPV in-vitro release kinetic experiments were carried out using the apparatus (VanKel VK7000 with a VK […] pump) comprised of six vessels containing 300 ml of 0.1% Tween 80 at 37° C. with USP paddles rotating at a speed of 50 rpm. The three formulations (F[I]-F[III]) were added to the different vessels at a LPV quantity equivalent to maintain sink conditions (10% of the pre-determined solubility). […] The samples were filtered using 0.45 μm PVDF filter and 500 μl from the filtrate was diluted in 500 μl methanol. These samples were comprised of free and encapsulated LPV, since LPV NCs diameter size is about 200 nm and the NCs can diffuse via 0.45 μm membrane pores. The remaining filtrate was then transferred to diafiltration membrane vivaspin 6 (MWCO 300,000 purchased from Sartorius Stedim Biotech) and centrifuged for 15 min at 4000 rpm. […] All samples were analyzed using HPLC. […] The graphs display both the total amount of LPV released from the MCPs, as free dissolved molecules and the LPV molecules still entrapped in the NCs, as detected following filtration of the dissolution samples through 0.45 μm PVDF filters (dimond-shaped points), as well as the free dissolved LPV molecules fraction only, as detected following a second filtration using 300,000 MW cut off vivaspin membranes which retained the NCs (square points). […]

[3] = Pharmacokinetic studies in rats (LPV plasma levels by LC-MS/MS); format: in vivo; conditions: male, Sprague-Dawley, rat
Procedure: Sprague-Dawley male rats weighing 270-300 g were used and were separated randomly into seven groups with 4-8 animals per group to evaluate the biofate of LPV in different formulations. The animals were housed in SPF conditions, fasted overnight (12-14 h prior to the experiment) with free access to water. The animals were given a dose of 10 mg/kg LPV with or without RTV, always at the same ratio as the Kaletra® administered orally, using gavage. The groups were orally administered according to the following experimental conditions: 1 ml of Kaletra® oral solution (LPV 80 mg/RTV 20 mg/ml) prepared by diluting the purchased commercial solution with 1:1:1 ethanol:propylene glycol:DDW to a concentration of LPV 3 mg/RTV 0.75 mg/ml; and microparticulate formulations, F[I]-F[III] prepared by dispersing the NCs embedded in MCPs in DDW to the final concentration of 40 mg/ml. Blood samples (400-500 μl) were withdrawn from the tail vein at 0, 0.5, 1, 2, 4, 8, 12 and 24 h. Saline solution was given to the animals after 30 min and then again after 3 h. The blood samples were collected in heparin containing tubes. The samples were immediately centrifuged at 10,000 rpm for 5 min, after which 200-300 μl of plasma samples were transferred to new tubes and stored at −80° C. until further analysis by LC-MS/MS as described below.
The blood samples were treated by protein precipitation in methanol, following 15 min centrifuge at 10,000 rpm. 25 ng of quinoxaline (QX) dissolved in methanol were added to each sample, as an internal standard. The supernatant layer was collected and the samples were injected into an LC-MS/MS device under the following conditions: using a Phenomenex Kenetex column (RP-C18, 50×2.1 mm, 2.6 μm, 100 A) in gradient mode; the mobile phase consisted of A=methanol/formic acid 99.9/0.1 and B=water/formic acid 99.9/0.1; the A:B ratio was 58:42 at t=0 min, during the first 1.5 min the ratio changed gradually to A:B 80:20 and remained steady until 2.1 min. […] The flow rate was maintained at 0.35 ml/min, and the column temperature was maintained at 35° C. LC-MS/MS analysis was performed with a thermo scientific Accela HPLC system coupled with a TSQ Quantum Access MAX detector in positive ionization mode. Detection and quantification were carried out by multiple-reaction monitoring with transitions from m/z 629.3 to 156 for LPV and from m/z 313.1 to 246 for QX. The tested samples were quantified against a calibration curve in the range of 0-100 ng/ml.
The change in LPV plasma concentrations following intravenous (i.v.) administration of LPV alone and combined with RTV in an aqueous solution and the pharmacokinetic (PK) profile of LPV following oral administration of various formulations is depicted in FIG. 10. […] The absolute bioavailability (F) of LPV at all dosage forms was calculated relative to the AUC (area under the curve) yielded by i.v. administration of LPV and RTV at the ratio of 4:1 (F=1.0) since the same combination of LPV and RTV, when administered orally, is considered the standard of PI care for HIV-linfected patients.

[4] = as above; format: in vivo; conditions: male, Sprague-Dawley, rat, oral, 10 mg/kg, read-out: absolute bioavailability compared to i.v. LPV solution
[5] = plasma, rats, oral, 10 mg/kg LPV

Structure (SMILES): Cc1cccc(C)c1OCC(=O)N[C@@H](Cc1ccccc1)[C@@H](O)C[C@H](Cc1ccccc1)NC(=O)[C@H](C(C)C)N1CCCNC1=O [LPV, (2S)—N-[(2S,4S,5S)-5-[2-(2,6-dimethylphenoxy)acetamido]-4-hydroxy-1,6-diphenylhexan-2-yl]-3-methyl-2-(2-oxo-1,3-diazinan-1-yl)butanamide]
- solubility at 3 h [1]: 72.7 µg/mL (≈ 116 µM)
- LPV solubility at pH 1.2 [2]: low solubility below HPLC detection limit
- decrease in Cmax compared to Kaletra® oral solution ([3]; in vivo, po): 3 fold
- AUC ([3]; plasma, iv, rats, 10 mg/kg LPV): 8000 ± 1220 ng·h/mL
- clearance ([3]; plasma, iv, rats, 10 mg/kg LPV): 21.1 mL/min/kg
- half-life ([3]; plasma, iv, rats, 10 mg/kg LPV): 1.2 ± 0.2 h
- Cmax ([3]; plasma, iv, rats, i.v., 10 mg/kg LPV, read-out: Cmax (extrapolated plasma concentration at T0)): 2780 ± 203 ng/mL
- bioavailability ([3]; plasma, oral, 10 mg/kg, rats, oral, read-out: absolute bioavailability compared to LPV:RTV 4:1 i.v.): 5%
- AUC [3, 5]: 1910 ± 324 ng·h/mL
- half-life [3, 5]: 4.8 ± 0.9 h
- Cmax ([3]; plasma, rats, oral, 10 mg/kg LPV, read-out: Cmax): 780 ± 246 ng/mL
- bioavailability [4]: 24%
